# Reference: publication PMC4213378, “Pharmacokinetics and Efficacy of the Spleen Tyrosine Kinase Inhibitor R406 after Ocular Delivery for Retinoblastoma” (Pharmaceutical Research, 2014)
# Legend:
# [1] = system: RB355 cells; experiment: Activated caspase 3 immunostaining of RB355 cells; type: cell-based
# [2] = Storage stability of R406 in murine plasma samples; type: physicochemical, mouse
# Description: Stability: The extracted solution stability of R406 from murine plasma or vitreous was assessed at low (41.2nM), medium (370.4 nM), and high (3333.3 nM) concentrations in triplicate at room temperature. Blank murine plasma was spiked with the indicated concentrations of R406 and extracted solutions were stored at room temperature for day 0, and day 2. The short-term stability of R406 in murine plasma or vitreous at -20 °C was assessed at three concentrations in triplicate. Samples were thawed at day 1 and 2. At day 2, protein precipitation was performed and samples treated with internal standard/acetonitrile as described previously: for murine plasma samples, 50 µL of sample was quenched by addition of 100 µL of 5 mg/L OSI-906 (internal standard) in 100% acetonitrile, followed by plate sealing, shaking and centrifuging, transfer of 100 µL of supernatant injection of 10 µL of supernatant onto the LC–MS/MS system; for murine vitreous samples, 5 µL of sample quenched by addition of 45 µL of 5 mg/L OSI-906 (internal standard) in 100% acetonitrile, followed by plate sealing, shaking and centrifuging, transfer of 40 µL of supernatant injection of 10 µL of supernatant onto the LC–MS/MS system. Long term stability of R406 in murine plasma or vitreous at −80 °C was assessed. Unextracted spiked murine plasma or vitreous at low, medium, and high levels was frozen at −80 °C for 0, 7, and 14 days. Samples were thawed immediately extracted with acetonitrile/OSI-906, and quantitated. All samples were analyzed in triplicates.
# [3] = system: retinoblastoma cells; parameters: method as in PMID 22237022; settings: cited from earlier work
structure (smiles),measurement,setting,value
COc1cc(Nc2ncc(F)c(Nc3ccc4c(n3)NC(=O)C(C)(C)O4)n2)cc(OC)c1OC [R406],caspase 3+ activation compared to untreated or DMSO treated cells,"[1]; 1 μM R406, any exposure time up to 48 h",did not show any increase in caspase 3+ activation
same,proportion of activated caspase 3+ cells,"[1]; 2.5 and 5 μM R406, 0-72 h exposure",increased with increasing exposure duration
same,minimal exposure required to kill retinoblastoma cells in culture,[1]; for at least 12 h,> 1 µM
same,time extracted samples were stable,"[2]; extracted from murine plasma, room temperature",at least 48 hours
same,Accuracy%,"[2]; extracted plasma samples in autosampler for 2 days, injected at Day 3, High Control 3333.3 nM",94.4%
same,Accuracy%,"[2]; extracted plasma samples in autosampler for 2 days, injected at Day 3, Low Control 41.2 nM",97.4%
same,Accuracy%,"[2]; extracted plasma samples in autosampler for 2 days, injected at Day 3, Middle Control 370.4 nM",97.6%
same,Accuracy%,"[2]; murine plasma at -20°C, thawed on Day 2, injected at Day 3, High Control 3333.3 nM",95.6%
same,Accuracy%,"[2]; murine plasma at -20°C, thawed on Day 2, injected at Day 3, Low Control 41.2 nM",109.2%
same,Accuracy%,"[2]; murine plasma at -20°C, thawed on Day 2, injected at Day 3, Middle Control 370.4 nM",98.4%
same,Accuracy%,"[2]; murine plasma at -20°C, thawed on Day 3, injected at Day 3, Middle Control 370.4 nM",101.5%
same,Accuracy%,"[2]; murine plasma at -80°C, injected at Day 8, High Control 3333.3 nM",84.3%
same,Accuracy%,"[2]; murine plasma at -80°C, injected at Day 8, Low Control 41.2 nM",87.8%
same,Accuracy%,"[2]; murine plasma at -80°C, injected at Day 8, Middle Control 370.4 nM",93.1%
same,Accuracy%,"[2]; murine plasma at -80°C, injected at Day 15, High Control 3333.3 nM",89.5%
same,Accuracy%,"[2]; murine plasma at -80°C, injected at Day 15, Low Control 41.2 nM",84.8%
same,Accuracy%,"[2]; murine plasma at -80°C, injected at Day 15, Middle Control 370.4 nM",84.7%
same,time spiked samples were stable,[2]; murine plasma stored at -20°C,at least 72 hours
same,time spiked samples were stable,[2]; murine plasma stored at -80°C,≥ 14 days
same,induction of caspase-mediated cell death of retinoblastoma cells in vitro,[3],can induce caspase-mediated cell death
